Columns and labels:
S. pneumoniae D39V [1] = assay: Bliss interaction score (quartile over a dose matrix) (fitness difference); higher = more antagonism (negative = synergy)
Outline: (§1)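 Each plate was normalised to the robust mean of its own no-drug wells, using OD595 at entry into stationary phase, with values capped at 1. This normalised growth is the fitness value. The Bliss score is the difference between observed and product-expected fitness, with single-drug fitness inferred from the combination data and quartiles taken over technical, biological and donor/recipient replicates.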

B. subtilis 168 = assay: as above
Outline: as §1

S. aureus DSM 20231 = assay: as above
Outline: as §1

S. aureus Newman = assay: as above
Outline: as §1

S. pneumoniae D39V [2] = assay: fitness (endpoint OD595 vs no drug) (fraction); higher = more growth
Outline: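 With the first reading as background, OD595 was measured every 30 min for 14 h in 384-well plates kept at 37 °C and inoculated at OD595 0.01. TSB, LB Lennox or CY was the medium. Fitness is the optical density at the transition into stationary phase divided by the robust mean of no-drug control wells, with a cap of 1.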
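For Bliss interaction score (quartile over a dose matrix) in this document: first quartile when negative (synergy) and third quartile when positive (antagonism).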

CO/N=C(\C(=O)N[C@@H]1C(=O)N2C(C(=O)O)=C(COC(C)=O)CS[C@H]12)c1csc(N)n1 [Cefotaxime] + CO[C@H]1/C=C/O[C@@]2(C)Oc3c(C)c(O)c4c(O)c(c(/C=N/N5CCN(C)CC5)c(O)c4c3C2=O)NC(=O)/C(C)=C\C=C\[C@H](C)[C@H](O)[C@@H](C)[C@@H](O)[C@@H](C)[C@H](OC(C)=O)[C@@H]1C [Rifampicin]
Conditions	Bliss interaction score
B. subtilis 168	0.0961
S. aureus DSM 20231	0.0866
S. aureus Newman	0.0597
S. pneumoniae D39V [1]	-0.0838

fitness, S. pneumoniae D39V [2]
Conditions	first compound 0.0018 µg/mL	first compound 0.0035 µg/mL	first compound 0.007 µg/mL
partner 0.025 µg/mL	0.96	0.964	0.798
partner 0.1 µg/mL	–	–	0.159

S. pneumoniae D39V [2], partner 0.2 µg/mL, one replicate
Conditions	fitness
first compound 0.0018 µg/mL	0
first compound 0.0035 µg/mL	0
first compound 0.007 µg/mL	0

C[C@@H]1O[C@@H]1P(=O)(O)O [Fosfomycin] + CO[C@H]1/C=C/O[C@@]2(C)Oc3c(C)c(O)c4c(O)c(c(/C=N/N5CCN(C)CC5)c(O)c4c3C2=O)NC(=O)/C(C)=C\C=C\[C@H](C)[C@H](O)[C@@H](C)[C@@H](O)[C@@H](C)[C@H](OC(C)=O)[C@@H]1C [Rifampicin]
Conditions	Bliss interaction score
B. subtilis 168	-0.0436
S. aureus DSM 20231	0.036
S. aureus Newman	0.0181
S. pneumoniae D39V [1]	0.0822

fitness, S. pneumoniae D39V [2]
Conditions	first compound 1.25 µg/mL	first compound 2.5 µg/mL	first compound 5 µg/mL
partner 0.025 µg/mL	0.987	0.969	0.806
partner 0.05 µg/mL	0.986	–	–
partner 0.1 µg/mL	–	–	0.318

S. pneumoniae D39V [2], partner 0.2 µg/mL, one replicate
Conditions	fitness
first compound 1.25 µg/mL	0
first compound 2.5 µg/mL	0
first compound 5 µg/mL	0

C[C@H]1c2cccc(O)c2C(=O)C2=C(O)[C@]3(O)C(=O)C(C(N)=O)=C(O)[C@@H](N(C)C)[C@@H]3[C@@H](O)[C@@H]21 [Doxycycline] + CO[C@H]1/C=C/O[C@@]2(C)Oc3c(C)c(O)c4c(O)c(c(/C=N/N5CCN(C)CC5)c(O)c4c3C2=O)NC(=O)/C(C)=C\C=C\[C@H](C)[C@H](O)[C@@H](C)[C@@H](O)[C@@H](C)[C@H](OC(C)=O)[C@@H]1C [Rifampicin]
Conditions	Bliss interaction score
B. subtilis 168	-0.253
S. aureus DSM 20231	-0.0196
S. aureus Newman	-0.0119
S. pneumoniae D39V [1]	-0.0813

S. pneumoniae D39V [2], one replicate
Conditions	fitness
first compound 0.003875 µg/mL, partner 0.05 µg/mL	0.802
first compound 0.003875 µg/mL, partner 0.1 µg/mL	0.36
first compound 0.003875 µg/mL, partner 0.2 µg/mL	0.109
first compound 0.00775 µg/mL, partner 0.05 µg/mL	0.864
first compound 0.00775 µg/mL, partner 0.1 µg/mL	0.494
first compound 0.00775 µg/mL, partner 0.2 µg/mL	0.207
first compound 0.0155 µg/mL, partner 0.025 µg/mL	0.912
first compound 0.031 µg/mL, partner 0.025 µg/mL	0.927
first compound 0.062 µg/mL, partner 0.025 µg/mL	0.825

fitness, S. pneumoniae D39V [2]
Conditions	first compound 0.0155 µg/mL	first compound 0.031 µg/mL	first compound 0.062 µg/mL
partner 0.05 µg/mL	0.863	0.861	–
partner 0.1 µg/mL	–	–	0.307
partner 0.2 µg/mL	0.199	0.113	0.0818

C[C@@H]1O[C@@H]1P(=O)(O)O [Fosfomycin] + Clc1ccc(COC(Cn2ccnc2)c2ccc(Cl)cc2Cl)c(Cl)c1 [Miconazole]
Conditions	Bliss interaction score
B. subtilis 168	-0.0714
S. aureus DSM 20231	0.0796
S. aureus Newman	0.103
S. pneumoniae D39V [1]	0.0499

fitness, S. pneumoniae D39V [2]
Conditions	partner 1.073 µg/mL	partner 1.25 µg/mL	partner 2.145 µg/mL	partner 2.5 µg/mL	partner 4.29 µg/mL	partner 5 µg/mL
first compound 1.25 µg/mL	0.988	0.946	0.967	0.946	0.879	0.968
first compound 2.5 µg/mL	0.926	0.905	0.879	0.933	0.789	0.929
first compound 5 µg/mL	0.758	0.769	0.7	0.753	0.678	0.776

COc1ccc(C[C@H](N)C(=O)N[C@H]2[C@@H](O)[C@H](n3cnc4c(N(C)C)ncnc43)O[C@@H]2CO)cc1 [Puromycin] + CO[C@H]1/C=C/O[C@@]2(C)Oc3c(C)c(O)c4c(O)c(c(/C=N/N5CCN(C)CC5)c(O)c4c3C2=O)NC(=O)/C(C)=C\C=C\[C@H](C)[C@H](O)[C@@H](C)[C@@H](O)[C@@H](C)[C@H](OC(C)=O)[C@@H]1C [Rifampicin]
Conditions	Bliss interaction score
B. subtilis 168	0.0301
S. aureus DSM 20231	0.0391
S. aureus Newman	0.0233
S. pneumoniae D39V [1]	-0.0708

S. pneumoniae D39V [2], partner 0.025 µg/mL, one replicate
Conditions	fitness
first compound 1 µg/mL	0.914
first compound 2 µg/mL	0.856
first compound 4 µg/mL	0.691

fitness, S. pneumoniae D39V [2]
Conditions	first compound 1 µg/mL	first compound 2 µg/mL	first compound 4 µg/mL
partner 0.05 µg/mL	0.747	0.753	–
partner 0.2 µg/mL	0.135	0.0783	0.0597

C[C@@H]1O[C@@H]1P(=O)(O)O [Fosfomycin] + C[C@@H](O)[C@H]1C(=O)N2C(C(=O)O)=C(SCCNC=N)C[C@H]12 [Imipenem]
Conditions	Bliss interaction score
B. subtilis 168	0.0674
S. aureus DSM 20231	-0.0911
S. aureus Newman	0.0199
S. pneumoniae D39V [1]	0.0339

fitness, S. pneumoniae D39V [2]
Conditions	partner 0.005 µg/mL	partner 0.0065 µg/mL	partner 0.01 µg/mL	partner 0.013 µg/mL	partner 0.02 µg/mL	partner 0.026 µg/mL
first compound 1.25 µg/mL	0.965	0.922	0.944	0.925	0.92	0.901
first compound 2.5 µg/mL	0.911	0.87	0.887	0.881	0.911	0.814
first compound 5 µg/mL	0.797	0.608	0.786	0.726	0.747	0.74

Cc1ncc([N+](=O)[O-])n1CCO [Metronidazole] + O=C1CN(/N=C/c2ccc([N+](=O)[O-])o2)C(=O)N1 [Nitrofurantoin]
Conditions	Bliss interaction score
B. subtilis 168	0.0755
S. aureus DSM 20231	0.0482
S. aureus Newman	-0.0503
S. pneumoniae D39V [1]	0.0483

fitness, S. pneumoniae D39V [2]
Conditions	first compound 1.073 µg/mL	first compound 1.25 µg/mL	first compound 2.145 µg/mL	first compound 2.5 µg/mL	first compound 4.29 µg/mL	first compound 5 µg/mL
partner 1.285 µg/mL	–	0.954	–	0.983	–	0.948
partner 2 µg/mL	0.93	–	0.945	–	0.89	–
partner 2.57 µg/mL	–	0.95	–	0.948	–	0.965
partner 4 µg/mL	0.929	–	0.919	–	0.902	–
partner 8 µg/mL	0.774	–	0.805	–	0.751	–

S. pneumoniae D39V [2], partner 5.14 µg/mL, one replicate
Conditions	fitness
first compound 1.25 µg/mL	0.936
first compound 2.5 µg/mL	0.973
first compound 5 µg/mL	0.989

CO/N=C(\C(=O)N[C@@H]1C(=O)N2C(C(=O)O)=C(COC(C)=O)CS[C@H]12)c1csc(N)n1 [Cefotaxime] + Clc1ccc(COC(Cn2ccnc2)c2ccc(Cl)cc2Cl)c(Cl)c1 [Miconazole]
Conditions	Bliss interaction score
B. subtilis 168	0.104
S. aureus DSM 20231	-0.0534
S. aureus Newman	0.0393
S. pneumoniae D39V [1]	-0.0628

fitness, S. pneumoniae D39V [2]
Conditions	partner 1.073 µg/mL	partner 1.25 µg/mL	partner 2.145 µg/mL	partner 2.5 µg/mL	partner 4.29 µg/mL	partner 5 µg/mL
first compound 0.0018 µg/mL	≥ 1	0.919	0.967	0.96	0.94	0.936
first compound 0.0035 µg/mL	≥ 1	0.866	0.907	0.9	0.866	0.911
first compound 0.007 µg/mL	0.797	0.749	–	0.789	0.613	0.796

O=C(O)c1cn(C2CC2)c2cc(N3CCNCC3)c(F)cc2c1=O [Ciprofloxacin] + O=C1CN(/N=C/c2ccc([N+](=O)[O-])o2)C(=O)N1 [Nitrofurantoin]
Conditions	Bliss interaction score
B. subtilis 168	0.129
S. aureus DSM 20231	0.0292
S. aureus Newman	-0.0569
S. pneumoniae D39V [1]	0.106

fitness, S. pneumoniae D39V [2]
Conditions	partner 1.285 µg/mL	partner 2 µg/mL	partner 2.57 µg/mL	partner 4 µg/mL	partner 8 µg/mL
first compound 0.125 µg/mL	0.921	0.914	0.932	0.906	0.692
first compound 0.25 µg/mL	0.895	–	0.903	–	–
first compound 0.5 µg/mL	0.704	–	0.72	–	0.437

fitness, S. pneumoniae D39V [2], one replicate
Conditions	partner 2 µg/mL	partner 4 µg/mL	partner 5.14 µg/mL	partner 8 µg/mL
first compound 0.125 µg/mL	–	–	0.877	–
first compound 0.25 µg/mL	0.731	0.679	0.879	0.56
first compound 0.5 µg/mL	–	–	0.627	–

From the supplement of paper PMC10627819
